Molecules are shown by their SMILES.

The text below walks through data of patent US10071133B2, “Method for destroying exosomes, kit for destroying exosomes, and method for isolating exosomes derived from normal cells” (priority 2015, dated 2018).

For the assay, the system named is exosomes derived from human breast cancer cells (MM231-luc-D3H2LN) in human peripheral blood sample. The following applies: […]10^10 particles/mL exosomes, 100 μM magainin 2 or 8% phenol, 25° C., 24 hours. As for the experimental part:
The exosome fraction A prepared from the cell line MM231-luc-D3H2LN derived from human breast cancer cells was added to a peripheral blood sample collected from a healthy person with no cancer (hereinafter will be also referred to as human peripheral blood sample) so as to become an exosome concentration of an actual cancer patient, and thereby an artificial sample of a human peripheral blood of the cancer patient was produced. The human peripheral blood sample was obtained after procurement of the patient informed consent according to the Declaration of Helsinki, similarly to the method described in Japanese Unexamined patent publication No. 2013-198483, for example. Blood was drawn using a blood collection tube containing an anticoagulant.
Using a part of the incubated solution, the exosomes were purified with Exo-Flow32 CD9 IP Kit (manufactured by SBI), and then the number of exosomes in the solution was measured using the nanoparticle analyzer (NanoSight LM10; manufactured by NanoSight, Ltd.). […] In addition, a part of the incubated solution was subjected to the serum component protein electrophoresis.

On to `Oc1ccccc1` [Comparative Example 2, phenol, reference compound], for which the “exosome amount compared to Comparative Example 3 (no additive)” value was “decreased”.
